Assay results from patent publication US8883847B2, “Compositions and methods of treatment using modulators of motoneuron diseases” (KineMed, Inc., priority 2006, dated 2014).

Tested on: SOD1-G93A TGN mice
Assay: Noscapine-MK801 treatment of SOD1-G93A TGN mice: gait/stride length, disease onset, mortality
Assay type: in vivo, mouse
Settings: for Mortality: age at death; for Onset of motor deficits: age at onset
Description: FIG. 6. Noscapine-MK801 combination delays onset of disease and death in SOD1-G93A TGN mice. The one and two-drug treatments were started at an early (i.e., presymptomatic) stage of disease (7 weeks). SOD1-G93A TGN mice were treated 3 times a week with noscapine (0.2 mg/kg body weight) and/or MK-801 (12 mg/kg body weight/day). Mice received noscapine intraperitoneally and MK-801 in drinking water.
Female SOD-1 G93A TGN mice were obtained from Jackson laboratory (strain #2726). The controls were matched litter mates. Treatment groups were three per group. Noscapine was injected intraperitoneal in the thigh 3 times/week (0.2 mg/kg i.p.) and MK801 was administered continuously in drinking water (12 mg/kg/d). Gait analysis was done by the method of Wooley et al., Muscle Nerve 2005 32(1):43-50 and Carter et al. J. Neurosci., 19(8):3248-3257, hereby incorporated by reference in their entirety.
For clinical assessment endpoints scoring was selected as follows:
GROUP CLASSIFICATION: Presymptomatic
Clinical signs: Full mobility and no observable difference in behavior from age-matched controls (Gait or stride length analysis).
GROUP CLASSIFICATION: Onset
Clinical signs: Abnormal Gait or stride length analysis and hindlimb weakness: >40% reduction in stride length vs. age-matched littermates.
GROUP CLASSIFICATION: End Stage (euthanization)
Clinical signs: noticeable and complete hind limb paralysis (which in this strain occurs more on one limb than the other) and inability to right themselves in 5 sec time window. This stage starts usually as the mice are failing the gait analysis test and enter the End stage. Therefore, Transgenic SOD1-G93A TGN mice are euthanized at the onset of noticeable and complete hindlimb paralysis and inability to right themselves in 5 sec time window.

Structure (SMILES)	Mortality [days]	Onset of motor deficits [days]
C[C@]12N[C@H](Cc3ccccc31)c1ccccc12 [MK-801, Dizocilipine]	112 to 119	105 to 112
COc1ccc2c(c1OC)C(=O)O[C@@H]2[C@H]1c2c(cc3c(c2OC)OCO3)CCN1C [Noscapine, noscapine]	112 to 119	98 to 105
